Legend:
Experiment in all cases: relative viability (nuclei count vs DMSO), 5 days (fraction); higher = more cells survive
[1] = compound: CC(=O)Nc1cccc(-n2c(=O)n(C3CC3)c(=O)c3c(Nc4ccc(I)cc4F)n(C)c(=O)c(C)c32)c1 [Trametinib] + Nc1ncn([C@H]2C[C@H](O)[C@@H](CO)O2)c(=O)n1 [Decitabine] (partner 2 µM)
Outline: (§1)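 For relative viability, nuclei counts in treated wells were divided by those in vehicle wells. Lung cancer cell lines had been pin-tool dosed in 1536-well plates the day after seeding and cultured for 5 days, then fixed and stained in one step (final 0.05% Triton X-100, 1% formaldehyde, 1 ug/ml Hoechst) and imaged at 4×. Doses were one drug alone or a fixed anchor-drug dose plus five library-drug doses (not always all listed) in √10 steps, and values are duplicate-plate medians.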

[2] = compound: CN1C=C(C2=CC=CC=C21)/C=C\3/C4=C(C=CC=N4)NC3=O + CS(=O)(=O)CCNCc1ccc(-c2ccc3ncnc(Nc4ccc(OCc5cccc(F)c5)c(Cl)c4)c3c2)o1 [Lapatinib] (partner 2 µM)
Outline: as §1

[3] = compound: CN1C=C(C2=CC=CC=C21)/C=C\3/C4=C(C=CC=N4)NC3=O + CCNC(=O)c1noc(-c2cc(C(C)C)c(O)cc2O)c1-c1ccc(CN2CCOCC2)cc1 [Luminespib] (partner 0.01 µM)
Outline: as §1

[4] = compound: CC(=O)Nc1cccc(-n2c(=O)n(C3CC3)c(=O)c3c(Nc4ccc(I)cc4F)n(C)c(=O)c(C)c32)c1 [Trametinib] + O=C(CCCCCCC(=O)Nc1ccccc1)NO [Vorinostat] (partner 1 µM)
Outline: as §1

UMC-11
relative viability ([1]; first compound 0.0025 µM): 0.548
relative viability ([1]; first compound 0.007906 µM): 0.674
relative viability ([1]; first compound 0.25 µM): 0.471
relative viability ([2]; first compound 0.02 µM): 0.854
relative viability ([2]; first compound 0.06325 µM): 0.901
relative viability ([2]; first compound 0.2 µM): 0.632
relative viability ([2]; first compound 0.6325 µM): 0.897
relative viability ([2]; first compound 2 µM): 1.33
relative viability ([3]; first compound 0.02 µM): 0.764
relative viability ([3]; first compound 0.06325 µM): 0.943
relative viability ([3]; first compound 0.2 µM): 1
relative viability ([3]; first compound 0.6325 µM): 1.25
relative viability ([3]; first compound 2 µM): 1.18
relative viability ([4]; first compound 0.0025 µM): 0.327
relative viability ([4]; first compound 0.007906 µM): 0.352
relative viability ([4]; first compound 0.07906 µM): 0.313
relative viability ([4]; first compound 0.25 µM): 0.294
